Experimental data reported in patent US20260055111A1, “CRYSTALLINE FORM OF PYRAZOLOPYRIMIDINE ESTER COMPOUND AND METHODS OF PREPARING THE SAME” (Shanghai Maius Pharmaceutical Co. Ltd., priority 2022, published 2026).
“Also recorded” adds a separate entry of the source.

Tests used:
[1] = Stability study: change in purity of solid forms after storage under different conditions; assay type: physicochemical; conditions: for Purity, Initial (Day 0): before storage; for Overall stability / degree of degradation compared with other forms: forced degradation conditions of the stability study; for Purity, Room Temperature (Day 10): stored at room temperature for 10 days; for Purity, In Light (Day 10): stored in light for 10 days
Method: Samples of the amorphous and crystalline (Forms I and II) compound of formula (I) were stored under different conditions.
Storage conditions for the crystalline form Form II: at 60° C. for 10 days; at 60° C. and 75% RH (relative humidity) for 10 days; in light for 10 days; and at room temperature for 10 days.
Storage conditions for the amorphous and crystalline (Form I) forms: at 40° C. for 10 days; at 60° C. and 75% RH for 10 days; in light for 10 days; and at room temperature for 10 days.

[2] = Hygroscopicity by dynamic vapor sorption (DVS), with XRPD before and after; assay type: physicochemical
[3] = cited from earlier work
[4] = stored at 60° C. and 75% RH for 10 days
[5] = stored at room temperature and in light for 10 days

Compound | Purity, Initial (Day 0) [1] | Overall stability / degree of degradation compared with other forms [1] | Purity, 40° C. (Day 10) ([1]; stored at 40° C. for 10 days) | Degradation in words ([1]; stored at 40° C. for 10 days, listed as amorphous) | Degradation in words ([1]; stored at 40° C. for 10 days, listed as amorphous compound) | Degradation in words [1, 4] | Purity, 60° C. + 75% RH (Day 10) [1, 4] | Purity, Room Temperature (Day 10) [1] | Purity, In Light (Day 10) [1] | Stability in words [1, 5] | Hygroscopicity [2] | Stability in words ([1]; degradation conditions such as high-temperature and high-humidity) | Purity, 60° C. (Day 10) ([1]; stored at 60° C. for 10 days) | XRPD pattern before and after the DVS determination [2] | 4-AAM AUC ([3]; AUC of the active metabolite 4-AAM, among the prodrugs of CN 202111131059.0) | AUC of the prodrug itself ([3]; among the prodrugs of CN 202111131059.0) | Rate of hydrolysis in blood ([3]; among the pyrazolopyrimidine ester prodrugs of CN 202111131059.0)
C=CC(=O)N1CCC[C@@H](n2nc(-c3ccc(Oc4ccccc4)cc3)c3c(NC(=O)OCCCC)ncnc32)C1 [Amorphous, 1-[(3R)-3-[4-(butoxycarbonyl)-amino-3-(4-phenoxyphenyl)-1H-pyrazolo[3,4-d]pyrimidin-1-yl]-1-piperidinyl]-2-propen-1-one] | 99.07% | poor stability | 96.10% | Noticeable degradation | Significant degradation | almost complete degradation | 0.27% | 98.01% | 98.63% |  |  |  |  |  |  |  | 
C=CC(=O)N1CCC[C@@H](n2nc(-c3ccc(Oc4ccccc4)cc3)c3c(NC(=O)OCCCC)ncnc32)C1 [Form I, 1-[(3R)-3-[4-(butoxycarbonyl)-amino-3-(4-phenoxyphenyl)-1H-pyrazolo[3,4-d]pyrimidin-1-yl]-1-piperidinyl]-2-propen-1-one] | 98.68% | lower degrees of degradation than the amorphous form | 98.60% |  |  |  | 90.62% | 98.64% | 98.62% | very stable; also recorded: remaining stable | almost non-hygroscopic |  |  |  |  |  | 
C=CC(=O)N1CCC[C@@H](n2nc(-c3ccc(Oc4ccccc4)cc3)c3c(NC(=O)OCCCC)ncnc32)C1 [Form II, 1-[(3R)-3-[4-(butoxycarbonyl)-amino-3-(4-phenoxyphenyl)-1H-pyrazolo[3,4-d]pyrimidin-1-yl]-1-piperidinyl]-2-propen-1-one] | 99.13% | lower degree of degradation than the amorphous form; also recorded: obviously better than the amorphous form and even better than Form I |  |  |  |  | 97.80% | 99.13% | 99.17% | more stable |  | stable | 98.90% | remained the same |  |  | 
C=CC(=O)N1CCC[C@@H](n2nc(-c3ccc(Oc4ccccc4)cc3)c3c(NC(=O)OCCCC)ncnc32)C1 [formula (I), 1-[(3R)-3-[4-(butoxycarbonyl)-amino-3-(4-phenoxyphenyl)-1H-pyrazolo[3,4-d]pyrimidin-1-yl]-1-piperidinyl]-2-propen-1-one] |  |  |  |  |  |  |  |  |  |  |  |  |  |  | highest | lowest | most rapidly
